# From patent publication US20070281857A1, “FORMIC ACID AS AN HERBICIDE” (MARRONE ORGANIC INNOVATIONS, priority 2006, published 2007)
# Read-outs that look alike come from different tables or passages of the source.
# Key:
# [1] = system: Lactuca sativa (lettuce) seed; conditions: stepwise dilution series from 25% to 0%
# Text: Numerous natural compounds were screened for their ability to inhibit the germination of dicot seeds. A single seed of Lactuca sativa (lettuce) was placed in each well of a 96-well plate followed by a solution of each compound in a stepwise dilution series from 25% to 0%. Germination was monitored daily.
# dicot seeds = conditions: charcoal saturated at 1 mL acid/1 g charcoal, applied to soil in flats; FIG. 2
# Text: (§1) Charcoal was applied to soil in flats containing a known number of seeds, either monocot or dicot, and germination was monitored in each of the treatment groups following intervals determined by the rate of germination in controls.
# monocot seeds = conditions: charcoal saturated at 1 mL acid/1 g charcoal, applied to soil in flats; FIG. 1
# Text: as §1
# Lactuca sativa (lettuce) = conditions: for germination rate potting mix clay / germination rate soil (silty clay loam) clay / germination rate potting mix corn starch / germination rate soil (silty clay loam) corn starch / germination rate potting mix sand / germination rate soil (silty clay loam) sand: 7 days, relative to untreated control
# Description: To test different carriers for formic acid, corn starch (powder), clay (granular, >2 mm diameter) and sand (small grain) were saturated with formic acid solutions (1, 3, and 5%) and dried at room temperature. Dry product (7.5 mL) was mixed with 60 mL of either potting mix or soil, and the mixture was placed in a small pot. Five (5) seeds of Lactuca sativa (lettuce) were planted on the top of each pot, and the seeds were covered with sand. The pots were incubated at room temperature under continuous light for 7 days, after which the number of seeds germinated in each pot was recorded and presented as a germination rate relative to the untreated control.
# apple seedlings = system: apple seedlings
# Description: In order to estimate the length of time during which the presence of formic acid in the soil would have a negative effect on new, and perhaps desirable, plantings, a residue study was performed. Holes were cut into the bottoms of flats. The flats were then filled with soil and treated with charcoal immersed in either formic acid or water, just as described above. Soil was watered regularly in order to simulate natural growing conditions and soil leaching. Ten apple seedlings were planted in individual flats containing one treatment or the other at intervals of one week and survival was monitored for one week following each planting.
structure (smiles),measurement,setting,value
O=CO [Formic acid],threshold value to inhibit germination of seeds,[1],0.0013%
same,effect on the germination of dicot seeds,dicot seeds,profound effect
same,effect on the germination of monocot seeds,monocot seeds,profound effect
same,germination rate potting mix clay,Lactuca sativa (lettuce); 1% formic acid on clay,100
same,germination rate soil (silty clay loam) clay,Lactuca sativa (lettuce); 1% formic acid on clay,100
same,germination rate potting mix corn starch,Lactuca sativa (lettuce); 1% formic acid on corn starch,100
same,germination rate soil (silty clay loam) corn starch,Lactuca sativa (lettuce); 1% formic acid on corn starch,100
same,germination rate potting mix sand,Lactuca sativa (lettuce); 1% formic acid on sand,100
same,germination rate soil (silty clay loam) sand,Lactuca sativa (lettuce); 1% formic acid on sand,100
same,germination rate potting mix clay,Lactuca sativa (lettuce); 3% formic acid on clay,80
same,germination rate soil (silty clay loam) clay,Lactuca sativa (lettuce); 3% formic acid on clay,100
same,germination rate potting mix corn starch,Lactuca sativa (lettuce); 3% formic acid on corn starch,100
same,germination rate soil (silty clay loam) corn starch,Lactuca sativa (lettuce); 3% formic acid on corn starch,75
same,germination rate potting mix sand,Lactuca sativa (lettuce); 3% formic acid on sand,80
same,germination rate soil (silty clay loam) sand,Lactuca sativa (lettuce); 3% formic acid on sand,100
same,"control of germination of lettuce, comparison of tested products",Lactuca sativa (lettuce); 5% formic acid imbedded in clay granules,best control of germination
same,germination rate potting mix clay,Lactuca sativa (lettuce); 5% formic acid on clay,60
same,germination rate soil (silty clay loam) clay,Lactuca sativa (lettuce); 5% formic acid on clay,50
same,germination rate potting mix corn starch,Lactuca sativa (lettuce); 5% formic acid on corn starch,100
same,germination rate soil (silty clay loam) corn starch,Lactuca sativa (lettuce); 5% formic acid on corn starch,100
same,germination rate potting mix sand,Lactuca sativa (lettuce); 5% formic acid on sand,20
same,germination rate soil (silty clay loam) sand,Lactuca sativa (lettuce); 5% formic acid on sand,100
same,survival of planted seedlings,"apple seedlings; ""By week 1, however, and in all subsequent weeks"", identical to water group",100%
same,residual herbicidal effect lasting,apple seedlings; formic acid on charcoal in watered soil,less than one week
same,planted seedlings survived,"apple seedlings; week 1, flats treated with charcoal immersed in formic acid, water flats 100 percent",80%
